Assay results as given in patent US20020026053A1, “Novel 3-(substituted) -2- indolinones compounds and use thereof as inhibitors of protein kinase activity” (priority 1997, published 2002).

Molecular target: T1, EGFR (Homo sapiens, UniProt P00533)
T1 construct: endogenous in cells; host or cells: A431 cells (lysate, captured with SUMO1 anti-EGFR antibody)
Assay: Biochemical EGFR Assay
Design: concentration or dose not given beside the values
Procedure, shortened: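 Readout is ABTS absorbance at 410 nm after anti-phosphotyrosine and HRP-antibody detection of EGFR autophosphorylation. The kinase was immunocaptured from A431 lysate, exposed 30 min to test compound diluted 1:10 in TBS, then phosphorylated for 5 min with ATP/MnCl2 before an EDTA stop.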

T1 sequence (P00533 25-1210): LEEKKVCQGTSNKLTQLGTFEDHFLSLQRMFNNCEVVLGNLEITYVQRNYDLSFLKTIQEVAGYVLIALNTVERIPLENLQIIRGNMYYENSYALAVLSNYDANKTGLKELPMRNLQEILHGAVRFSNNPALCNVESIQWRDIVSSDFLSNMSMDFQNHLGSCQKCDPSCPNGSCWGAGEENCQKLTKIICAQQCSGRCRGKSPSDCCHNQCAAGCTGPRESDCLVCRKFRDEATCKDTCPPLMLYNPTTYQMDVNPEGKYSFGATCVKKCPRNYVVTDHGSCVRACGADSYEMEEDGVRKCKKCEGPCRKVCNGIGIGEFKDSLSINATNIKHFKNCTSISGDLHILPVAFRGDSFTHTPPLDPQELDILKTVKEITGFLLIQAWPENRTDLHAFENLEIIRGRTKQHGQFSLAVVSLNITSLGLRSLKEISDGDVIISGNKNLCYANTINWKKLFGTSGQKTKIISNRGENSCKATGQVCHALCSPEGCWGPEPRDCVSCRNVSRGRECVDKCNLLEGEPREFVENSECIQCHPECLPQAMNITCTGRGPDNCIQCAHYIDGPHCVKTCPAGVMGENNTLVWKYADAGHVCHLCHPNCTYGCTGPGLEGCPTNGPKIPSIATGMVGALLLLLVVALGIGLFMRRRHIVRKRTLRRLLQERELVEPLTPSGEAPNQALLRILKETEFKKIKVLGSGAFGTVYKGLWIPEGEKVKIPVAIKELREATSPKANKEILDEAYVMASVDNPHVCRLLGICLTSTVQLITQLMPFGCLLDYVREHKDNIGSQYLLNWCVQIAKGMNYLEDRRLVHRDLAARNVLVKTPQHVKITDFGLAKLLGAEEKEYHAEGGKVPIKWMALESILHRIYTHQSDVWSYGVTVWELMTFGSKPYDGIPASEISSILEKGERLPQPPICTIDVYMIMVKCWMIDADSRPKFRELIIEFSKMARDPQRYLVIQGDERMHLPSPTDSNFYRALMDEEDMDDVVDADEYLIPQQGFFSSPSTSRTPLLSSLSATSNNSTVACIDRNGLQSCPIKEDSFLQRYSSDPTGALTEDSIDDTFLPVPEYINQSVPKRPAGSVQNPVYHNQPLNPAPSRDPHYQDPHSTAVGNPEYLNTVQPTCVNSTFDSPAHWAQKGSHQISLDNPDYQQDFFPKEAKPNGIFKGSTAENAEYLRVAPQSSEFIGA

O=C1Nc2ccc(S(=O)(=O)N3CCOCC3)cc2C1=Cc1cc(Cl)cc(Cl)c1O [10734/F03]
Biochem EGFR % Inhibition (P.167): 24.8%

O=C1Nc2ccc(S(=O)(=O)N3CCOCC3)cc2C1=Cc1cc(Cl)ccc1O [10734/F04]
Biochem EGFR % Inhibition (P.167): 3.9%

CCN(CC)c1ccc(C=C2C(=O)Nc3ccc(S(=O)(=O)N4CCOCC4)cc32)c(O)c1 [10734/F05]
Biochem EGFR % Inhibition (P.167): −15.6%

O=C1Nc2ccc(S(=O)(=O)N3CCOCC3)cc2C1=Cc1ccc([N+](=O)[O-])cc1 [10734/F06]
Biochem EGFR % Inhibition (P.167): −17.1%

O=C1Nc2ccc(S(=O)(=O)N3CCOCC3)cc2C1=Cc1cc(Br)cc(Br)c1O [10734/F07]
Biochem EGFR % Inhibition (P.167): 33.7%

O=C1Nc2ccc(S(=O)(=O)N3CCOCC3)cc2C1=Cc1cccc(F)c1O [10734/F08]
Biochem EGFR % Inhibition (P.167): −23.6%

O=C1Nc2ccc(S(=O)(=O)N3CCOCC3)cc2C1=Cc1ccc(O)c(Br)c1 [10734/F09]
Biochem EGFR % Inhibition (P.167): 3.1%

CC(C)(C)c1ccc(C=C2C(=O)Nc3ccc(S(=O)(=O)N4CCOCC4)cc32)cc1 [10734/F10]
Biochem EGFR % Inhibition (P.167): −8.3%

O=C1Nc2ccc(S(=O)(=O)N3CCOCC3)cc2C1=Cc1ccc(Br)s1 [10734/F11]
Biochem EGFR % Inhibition (P.167): −15.6%

CCOc1cccc(C=C2C(=O)Nc3ccc(CCCl)cc32)c1O [10734/G02]
Biochem EGFR % Inhibition (P.167): 3.4%

O=C1Nc2ccc(CCCl)cc2C1=Cc1cc(Cl)cc(Cl)c1O [10734/G03]
Biochem EGFR % Inhibition (P.167): 82.8%

O=C1Nc2ccc(CCCl)cc2C1=Cc1cc(Cl)ccc1O [10734/G04]
Biochem EGFR % Inhibition (P.167): 62.9%

CCN(CC)c1ccc(C=C2C(=O)Nc3ccc(CCCl)cc32)c(O)c1 [10734/G05]
Biochem EGFR % Inhibition (P.167): −0.3%

O=C1Nc2ccc(CCCl)cc2C1=Cc1ccc([N+](=O)[O-])cc1 [10734/G06]
Biochem EGFR % Inhibition (P.167): 12.5%

O=C1Nc2ccc(CCCl)cc2C1=Cc1cc(Br)cc(Br)c1O [10734/G07]
Biochem EGFR % Inhibition (P.167): 51.1%

O=C1Nc2ccc(CCCl)cc2C1=Cc1cccc(F)c1O [10734/G08]
Biochem EGFR % Inhibition (P.167): 33.7%

O=C1Nc2ccc(CCCl)cc2C1=Cc1ccc(O)c(Br)c1 [10734/G09]
Biochem EGFR % Inhibition (P.167): 21.4%

CC(C)(C)c1ccc(C=C2C(=O)Nc3ccc(CCCl)cc32)cc1 [10734/G10]
Biochem EGFR % Inhibition (P.167): 3.8%

O=C1Nc2ccc(CCCl)cc2C1=Cc1ccc(Br)s1 [10734/G11]
Biochem EGFR % Inhibition (P.167): 4.1%

CCOc1cccc(C=C2C(=O)Nc3c(Br)cc(Br)c(C)c32)c1O [10734/H02]
Biochem EGFR % Inhibition (P.167): −11.9%

Cc1c(Br)cc(Br)c2c1C(=Cc1cc(Cl)cc(Cl)c1O)C(=O)N2 [10734/H03]
Biochem EGFR % Inhibition (P.167): 6.6%

Cc1c(Br)cc(Br)c2c1C(=Cc1cc(Cl)ccc1O)C(=O)N2 [10734/H04]
Biochem EGFR % Inhibition (P.167): 5.9%
